3 compounds from article PMC3639963, “A New Class of Small Molecule Inhibitor of BMP Signaling” (PLoS ONE, 2013) can be followed below.

“Also recorded” adds a separate entry of the source.

The test system of data set [1] is Tg(fli1a:eGFP) zebrafish embryos. Description: Intersomitic vessel (ISV) formation in zebrafish embryos. Type of data set: in vivo. As to conditions: treated from 12 hpf, scored at 48 hpf. The procedure:
The zebrafish colony was maintained as described and embryos were raised at 28.5°C. The Tg(BRE:mRFP) transgenic line (also called BRE-mRFP) has been described previously and expresses mRFP in response to BMP signaling. […] Inhibitor stocks were diluted in DMSO and then further diluted in fish water to give the required inhibitor concentrations. To minimize the amount of inhibitors used, experiments were performed in 24-well plates with approximately 20 embryos per well in a volume of 1 mL. The chemical treatment was applied by immersing 8- to 16-cell stage Tg(BRE:mRFP) embryos (dorsalization experiment) or 12 hours old […]) embryos (ISV experiment) in the fish water supplemented with DMSO or the chemical inhibitors. For the ISV experiment, embryos were manually dechorionated after bud stage before treatment. Embryos were scored and photographed at 26 or 48 hours.

Data set [2] concerns the target T1, MPSK1 (Homo sapiens, UniProt O75716).
T1 construct: purchased Nanosyn (enzymatic panel); SGC in-house recombinant human kinases (DSF panel); Invitrogen (ALK1-6)
The data set is described as follows: DSF thermal shift. Type of data set: binding. As to conditions: 10 µM inhibitor; read-out: Tm shift. As for the experimental part: (§1) Thermal melting experiments were performed using a Real Time PCR machine Mx3005p (Stratagene) with a protein concentration of 1–2 µM and 10 µM inhibitor as described previously, [25]. […] Recombinant human kinases for DSF screening were prepared by SGC using published methods, [36].

In data set [3] the target is T2, PIM2 (Homo sapiens, UniProt Q9P1W9).
T2 construct: purchased Nanosyn (enzymatic panel); SGC in-house recombinant human kinases (DSF panel); Invitrogen (ALK1-6)
T2 sequence (Q9P1W9 whole entry): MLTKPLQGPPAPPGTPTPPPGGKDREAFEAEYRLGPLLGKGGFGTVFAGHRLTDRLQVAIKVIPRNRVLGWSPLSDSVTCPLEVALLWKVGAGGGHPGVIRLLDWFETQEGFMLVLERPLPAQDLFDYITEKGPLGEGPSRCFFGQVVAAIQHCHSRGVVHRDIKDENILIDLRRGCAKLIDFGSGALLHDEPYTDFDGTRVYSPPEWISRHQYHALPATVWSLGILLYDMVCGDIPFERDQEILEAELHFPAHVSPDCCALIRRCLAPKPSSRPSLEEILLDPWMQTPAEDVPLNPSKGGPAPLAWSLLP
Description: DSF thermal shift. Type of data set: binding. As to conditions: 10 µM inhibitor; read-out: Tm shift. The procedure: as §1

Data set [4] concerns the target T3, AMPKα2 (Homo sapiens, UniProt P54646).
T3 construct: purchased Nanosyn (enzymatic panel); SGC in-house recombinant human kinases (DSF panel); Invitrogen (ALK1-6)
The data set is described as follows: DSF thermal shift. Type of data set: binding. The conditions noted are these: 10 µM inhibitor; read-out: Tm shift. As for the experimental part: as §1

For data set [5], the target named is T4, PIM1 (Homo sapiens, UniProt P11309).
T4 construct: purchased Nanosyn (enzymatic panel); SGC in-house recombinant human kinases (DSF panel); Invitrogen (ALK1-6)
T4 sequence (P11309 whole entry): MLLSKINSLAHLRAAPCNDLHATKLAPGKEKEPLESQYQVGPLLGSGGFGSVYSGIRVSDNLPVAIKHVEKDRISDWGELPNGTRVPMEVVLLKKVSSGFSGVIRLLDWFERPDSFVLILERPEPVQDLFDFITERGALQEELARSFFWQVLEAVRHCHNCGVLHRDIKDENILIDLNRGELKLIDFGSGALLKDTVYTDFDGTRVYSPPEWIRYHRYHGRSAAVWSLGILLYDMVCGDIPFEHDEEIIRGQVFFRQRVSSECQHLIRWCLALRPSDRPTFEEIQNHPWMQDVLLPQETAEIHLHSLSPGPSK
The data set is described as follows: DSF thermal shift. Type of data set: binding. As to conditions: 10 µM inhibitor; read-out: Tm shift. The procedure: as §1

Data set [6] has as its target T5, p38δ (Homo sapiens, UniProt O15264).
T5 construct: purchased Nanosyn (enzymatic panel); SGC in-house recombinant human kinases (DSF panel); Invitrogen (ALK1-6)
T5 sequence (O15264 1-365): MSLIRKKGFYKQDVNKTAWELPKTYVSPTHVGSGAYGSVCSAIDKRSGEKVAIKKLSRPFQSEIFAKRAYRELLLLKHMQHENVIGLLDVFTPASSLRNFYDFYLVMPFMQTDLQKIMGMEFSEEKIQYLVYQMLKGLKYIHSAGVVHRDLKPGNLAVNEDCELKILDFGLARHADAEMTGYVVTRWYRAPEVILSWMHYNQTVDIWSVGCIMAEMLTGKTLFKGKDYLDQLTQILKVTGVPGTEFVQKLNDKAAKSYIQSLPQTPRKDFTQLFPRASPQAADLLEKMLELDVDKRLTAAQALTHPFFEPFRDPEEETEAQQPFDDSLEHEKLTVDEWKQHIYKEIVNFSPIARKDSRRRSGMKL
Description: DSF thermal shift. Type of data set: binding. The conditions noted are these: 10 µM inhibitor; read-out: Tm shift. The procedure: as §1

Data set [7] addresses T6, ALK4 (Homo sapiens, UniProt P36896).
T6 construct: purchased Invitrogen
T6 sequence (P36896 24-505): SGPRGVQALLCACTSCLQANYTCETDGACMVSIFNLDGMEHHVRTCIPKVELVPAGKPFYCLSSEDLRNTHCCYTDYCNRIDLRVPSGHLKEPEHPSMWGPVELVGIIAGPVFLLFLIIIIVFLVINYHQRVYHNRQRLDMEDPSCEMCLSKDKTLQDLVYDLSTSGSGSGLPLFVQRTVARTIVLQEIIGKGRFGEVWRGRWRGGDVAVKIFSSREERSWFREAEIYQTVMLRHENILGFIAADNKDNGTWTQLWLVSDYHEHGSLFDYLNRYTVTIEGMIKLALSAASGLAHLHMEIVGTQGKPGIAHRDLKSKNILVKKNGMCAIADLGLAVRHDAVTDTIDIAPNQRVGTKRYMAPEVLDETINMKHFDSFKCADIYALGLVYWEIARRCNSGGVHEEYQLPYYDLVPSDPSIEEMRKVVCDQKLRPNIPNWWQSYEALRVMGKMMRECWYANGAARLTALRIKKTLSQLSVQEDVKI
The data set is described as follows: DSF thermal shift. Type of data set: binding. The conditions noted are these: 10 µM inhibitor; read-out: Tm shift. As for the experimental part: as §1

Data set [8] concerns the target T7, DRAK2 (Homo sapiens, UniProt O94768).
T7 construct: purchased Nanosyn (enzymatic panel); SGC in-house recombinant human kinases (DSF panel); Invitrogen (ALK1-6)
T7 sequence (O94768 1-372): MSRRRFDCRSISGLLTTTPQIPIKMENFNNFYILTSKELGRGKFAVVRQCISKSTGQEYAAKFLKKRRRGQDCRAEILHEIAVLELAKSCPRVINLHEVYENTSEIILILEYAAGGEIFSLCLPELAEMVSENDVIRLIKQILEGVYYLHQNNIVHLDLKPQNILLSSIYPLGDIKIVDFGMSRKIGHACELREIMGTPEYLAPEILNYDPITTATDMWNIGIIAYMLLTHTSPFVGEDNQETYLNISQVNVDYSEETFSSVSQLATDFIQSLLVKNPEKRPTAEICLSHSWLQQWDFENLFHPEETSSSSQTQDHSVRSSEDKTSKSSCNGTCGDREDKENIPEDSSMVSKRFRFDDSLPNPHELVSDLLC
The data set is described as follows: DSF thermal shift. The conditions noted are these: 10 µM inhibitor; read-out: Tm shift. Type of data set: binding. As for the experimental part: as §1

Data set [9] has as its target T8, MST3 (Homo sapiens, UniProt Q9Y6E0).
T8 construct: purchased Nanosyn (enzymatic panel); SGC in-house recombinant human kinases (DSF panel); Invitrogen (ALK1-6)
The data set is described as follows: DSF thermal shift. Type of data set: binding. The conditions noted are these: 10 µM inhibitor; read-out: Tm shift. As for the experimental part:
as §1

Data set [10] concerns the target T9, OSR1 (Homo sapiens, UniProt O95747).
T9 construct: purchased Nanosyn (enzymatic panel); SGC in-house recombinant human kinases (DSF panel); Invitrogen (ALK1-6)
The data set is described as follows: DSF thermal shift. Type of data set: binding. As to conditions: 10 µM inhibitor; read-out: Tm shift. As for the experimental part: as §1

Data set [11] addresses T10, JNK2 (Homo sapiens, UniProt P45984).
T10 construct: purchased Nanosyn (enzymatic panel); SGC in-house recombinant human kinases (DSF panel); Invitrogen (ALK1-6)
The data set is described as follows: DSF thermal shift. Type of data set: binding. The conditions noted are these: 10 µM inhibitor; read-out: Tm shift. The procedure:
as §1

Data set [12] has as its target T11, SLK (Homo sapiens, UniProt Q9H2G2).
T11 construct: purchased Nanosyn (enzymatic panel); SGC in-house recombinant human kinases (DSF panel); Invitrogen (ALK1-6)
Description: DSF thermal shift. Type of data set: binding. The conditions noted are these: 10 µM inhibitor; read-out: Tm shift. As for the experimental part:
as §1

Data set [13] concerns the target T12, YANK1 (Homo sapiens, UniProt Q8WU08).
T12 construct: purchased Nanosyn (enzymatic panel); SGC in-house recombinant human kinases (DSF panel); Invitrogen (ALK1-6)
The data set is described as follows: DSF thermal shift. Type of data set: binding. As to conditions: 10 µM inhibitor; read-out: Tm shift. The procedure: as §1

Data set [14] concerns the target T13, ERK1 (Homo sapiens, UniProt P27361).
T13 construct: purchased Nanosyn (enzymatic panel); SGC in-house recombinant human kinases (DSF panel); Invitrogen (ALK1-6)
The data set is described as follows: DSF thermal shift. Type of data set: binding. The conditions noted are these: 10 µM inhibitor; read-out: Tm shift. As for the experimental part:
as §1

In data set [15] the target is T14, CHEK2 (Homo sapiens, UniProt O96017).
T14 construct: purchased Nanosyn (enzymatic panel); SGC in-house recombinant human kinases (DSF panel); Invitrogen (ALK1-6)
T14 sequence (O96017 whole entry): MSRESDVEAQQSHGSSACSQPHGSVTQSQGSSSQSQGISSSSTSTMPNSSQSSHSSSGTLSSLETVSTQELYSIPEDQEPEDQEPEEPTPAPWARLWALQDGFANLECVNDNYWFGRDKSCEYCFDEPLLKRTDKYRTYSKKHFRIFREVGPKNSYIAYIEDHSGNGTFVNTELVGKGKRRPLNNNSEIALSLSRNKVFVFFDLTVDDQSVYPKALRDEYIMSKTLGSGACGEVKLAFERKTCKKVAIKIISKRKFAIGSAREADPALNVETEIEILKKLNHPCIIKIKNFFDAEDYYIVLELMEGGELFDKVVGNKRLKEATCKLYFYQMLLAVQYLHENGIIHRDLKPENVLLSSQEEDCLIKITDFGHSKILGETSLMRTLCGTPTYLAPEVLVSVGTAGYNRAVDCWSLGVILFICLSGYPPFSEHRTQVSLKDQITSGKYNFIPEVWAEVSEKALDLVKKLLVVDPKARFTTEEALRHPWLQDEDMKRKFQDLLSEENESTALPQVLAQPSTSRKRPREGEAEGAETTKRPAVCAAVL
Description: DSF thermal shift. The conditions noted are these: 10 µM inhibitor; read-out: Tm shift. Type of data set: binding. As for the experimental part: as §1

T1 sequence (O75716 whole entry): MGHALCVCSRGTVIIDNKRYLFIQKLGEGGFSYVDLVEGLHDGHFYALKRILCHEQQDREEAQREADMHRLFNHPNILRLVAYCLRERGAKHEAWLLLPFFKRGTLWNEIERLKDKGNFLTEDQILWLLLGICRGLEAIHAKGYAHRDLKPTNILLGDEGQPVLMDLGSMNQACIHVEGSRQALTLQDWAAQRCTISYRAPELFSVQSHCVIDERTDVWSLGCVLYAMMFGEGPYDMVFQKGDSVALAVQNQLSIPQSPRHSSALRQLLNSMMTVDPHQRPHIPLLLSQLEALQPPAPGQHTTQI
T10 sequence (P45984 whole entry): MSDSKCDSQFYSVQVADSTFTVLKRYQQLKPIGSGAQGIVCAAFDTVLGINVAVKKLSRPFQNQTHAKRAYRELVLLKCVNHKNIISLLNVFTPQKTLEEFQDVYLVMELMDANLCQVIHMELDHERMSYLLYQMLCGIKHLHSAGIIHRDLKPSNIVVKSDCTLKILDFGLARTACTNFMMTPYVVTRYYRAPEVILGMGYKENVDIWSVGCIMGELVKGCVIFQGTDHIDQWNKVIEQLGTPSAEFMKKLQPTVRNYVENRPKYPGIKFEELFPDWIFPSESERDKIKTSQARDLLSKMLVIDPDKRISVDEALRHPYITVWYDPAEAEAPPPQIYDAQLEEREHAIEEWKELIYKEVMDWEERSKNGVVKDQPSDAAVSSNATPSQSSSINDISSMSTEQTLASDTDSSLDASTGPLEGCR
T11 sequence (Q9H2G2 whole entry): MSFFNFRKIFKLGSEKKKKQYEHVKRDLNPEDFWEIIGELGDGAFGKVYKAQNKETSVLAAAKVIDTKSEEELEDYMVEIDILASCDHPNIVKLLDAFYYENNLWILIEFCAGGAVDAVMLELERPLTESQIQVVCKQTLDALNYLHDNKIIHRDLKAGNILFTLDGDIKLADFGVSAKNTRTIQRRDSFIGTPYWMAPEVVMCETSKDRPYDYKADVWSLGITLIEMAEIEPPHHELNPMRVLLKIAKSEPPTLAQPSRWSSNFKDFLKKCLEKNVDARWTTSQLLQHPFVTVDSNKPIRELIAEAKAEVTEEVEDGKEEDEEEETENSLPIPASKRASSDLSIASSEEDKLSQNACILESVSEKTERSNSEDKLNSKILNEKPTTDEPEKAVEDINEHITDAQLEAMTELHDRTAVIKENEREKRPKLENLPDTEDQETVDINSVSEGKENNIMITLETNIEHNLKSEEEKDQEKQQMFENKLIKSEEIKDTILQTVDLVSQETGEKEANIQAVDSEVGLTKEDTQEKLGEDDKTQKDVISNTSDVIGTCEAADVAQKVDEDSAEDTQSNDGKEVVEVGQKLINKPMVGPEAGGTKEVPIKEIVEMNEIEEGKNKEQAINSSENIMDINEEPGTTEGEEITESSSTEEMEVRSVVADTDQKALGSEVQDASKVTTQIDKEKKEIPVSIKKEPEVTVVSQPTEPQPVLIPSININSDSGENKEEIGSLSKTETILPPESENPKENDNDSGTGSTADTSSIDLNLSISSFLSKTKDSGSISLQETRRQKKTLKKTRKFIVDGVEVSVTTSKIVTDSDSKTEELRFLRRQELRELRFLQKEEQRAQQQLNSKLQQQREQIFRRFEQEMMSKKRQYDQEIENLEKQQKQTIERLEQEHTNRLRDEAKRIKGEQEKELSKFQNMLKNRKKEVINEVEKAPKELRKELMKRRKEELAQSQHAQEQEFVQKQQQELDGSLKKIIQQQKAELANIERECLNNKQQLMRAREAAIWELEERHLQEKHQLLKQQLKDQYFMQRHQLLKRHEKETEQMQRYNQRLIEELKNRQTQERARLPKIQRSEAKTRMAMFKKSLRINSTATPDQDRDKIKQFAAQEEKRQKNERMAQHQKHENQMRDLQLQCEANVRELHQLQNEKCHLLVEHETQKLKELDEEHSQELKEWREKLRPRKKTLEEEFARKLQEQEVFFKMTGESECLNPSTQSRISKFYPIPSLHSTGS
T13 sequence (P27361 whole entry): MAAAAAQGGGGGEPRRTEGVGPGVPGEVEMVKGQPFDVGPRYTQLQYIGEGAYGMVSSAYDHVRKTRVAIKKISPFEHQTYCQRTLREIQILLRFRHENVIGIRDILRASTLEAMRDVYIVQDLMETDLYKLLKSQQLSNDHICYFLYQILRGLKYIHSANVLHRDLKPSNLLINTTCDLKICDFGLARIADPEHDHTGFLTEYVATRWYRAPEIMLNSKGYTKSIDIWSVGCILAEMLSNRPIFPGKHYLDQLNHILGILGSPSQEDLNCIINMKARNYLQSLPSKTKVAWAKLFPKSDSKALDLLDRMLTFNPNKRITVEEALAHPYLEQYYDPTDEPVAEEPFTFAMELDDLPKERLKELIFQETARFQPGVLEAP
T12 sequence (Q8WU08 whole entry): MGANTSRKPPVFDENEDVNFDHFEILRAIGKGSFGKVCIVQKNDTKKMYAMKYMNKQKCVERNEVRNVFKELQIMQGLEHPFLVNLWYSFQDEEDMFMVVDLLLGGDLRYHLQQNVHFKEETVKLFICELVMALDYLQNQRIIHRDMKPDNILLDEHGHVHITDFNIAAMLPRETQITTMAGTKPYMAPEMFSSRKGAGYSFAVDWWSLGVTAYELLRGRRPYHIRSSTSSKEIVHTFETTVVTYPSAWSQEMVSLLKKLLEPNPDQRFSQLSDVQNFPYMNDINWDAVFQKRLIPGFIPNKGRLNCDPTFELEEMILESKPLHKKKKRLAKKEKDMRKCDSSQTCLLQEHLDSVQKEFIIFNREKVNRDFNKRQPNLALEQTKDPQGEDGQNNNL
T9 sequence (O95747 whole entry): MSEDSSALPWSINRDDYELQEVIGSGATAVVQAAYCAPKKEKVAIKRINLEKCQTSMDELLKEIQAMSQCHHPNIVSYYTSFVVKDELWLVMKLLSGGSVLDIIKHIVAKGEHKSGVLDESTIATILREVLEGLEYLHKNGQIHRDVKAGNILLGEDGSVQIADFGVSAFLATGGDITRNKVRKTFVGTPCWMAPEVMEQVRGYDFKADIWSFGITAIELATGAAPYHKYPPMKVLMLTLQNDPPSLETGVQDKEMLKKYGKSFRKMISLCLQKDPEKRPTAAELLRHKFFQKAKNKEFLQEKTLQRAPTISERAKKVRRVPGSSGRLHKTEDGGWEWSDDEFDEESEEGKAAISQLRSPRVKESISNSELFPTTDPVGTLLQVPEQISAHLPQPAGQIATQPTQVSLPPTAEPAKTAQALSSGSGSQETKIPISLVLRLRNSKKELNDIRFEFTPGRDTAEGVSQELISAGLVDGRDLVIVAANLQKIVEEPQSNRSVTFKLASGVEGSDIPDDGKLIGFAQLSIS
T8 sequence (Q9Y6E0 whole entry): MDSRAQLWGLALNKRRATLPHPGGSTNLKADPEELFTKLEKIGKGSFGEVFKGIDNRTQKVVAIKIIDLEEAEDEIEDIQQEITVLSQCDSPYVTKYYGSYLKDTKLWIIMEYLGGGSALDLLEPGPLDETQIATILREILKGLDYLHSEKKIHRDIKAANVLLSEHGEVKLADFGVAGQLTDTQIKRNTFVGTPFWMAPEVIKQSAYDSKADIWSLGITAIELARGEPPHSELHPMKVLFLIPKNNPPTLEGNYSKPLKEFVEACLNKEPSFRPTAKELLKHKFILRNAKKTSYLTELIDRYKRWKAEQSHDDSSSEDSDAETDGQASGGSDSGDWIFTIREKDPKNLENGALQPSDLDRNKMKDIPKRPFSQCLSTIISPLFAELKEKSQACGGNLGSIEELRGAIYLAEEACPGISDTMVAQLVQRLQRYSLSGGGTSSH

As to `c1cc(-c2cnn3cc(-c4ccc(OCCN5CCCCC5)cc4)cnc23)ccn1` [Dorsomorphin], the ISV formation phenotype entry in data set [1] (10 µM) was “defects in intersomitic vessel (ISV) formation”. Besides, the ΔTm at 10 µM amounted to 5.3 °C in data set [2]; 0.6 °C in data set [3]; 7.1 °C in data set [4]; 0.6 °C in [5]; 0 °C in data set [6]; 6.1 °C in [7]. The ΔTm at 10 µM is 10 °C in [8]; 4.6 °C in data set [9]; 1.6 °C in data set [10]; 0.4 °C in data set [11]; 1.6 °C in data set [12]; 0.5 °C in data set [13]. Also, the ΔTm at 10 µM in data set [14] came to 0 °C; in [15], 1.7 °C.
`COc1cc(-c2cc(-c3cccc(O)c3)cnc2N)cc(OC)c1OC` [K02288, 3-[6-amino-5-(3,4,5-trimethoxy-phenyl)-pyridin-3-yl]-phenol]: the ISV formation phenotype result in [1] (10 µM) is “no phenotype”; in data set [1] (10–20 µM), “no ISV defects”. Besides, the ΔTm at 10 µM in data set [2] was 0.3 °C; in [3], 0.1 °C; in [4] it was 1.2 °C; in [5], 0.1 °C; in data set [6] it was -0.2 °C; in data set [7], 8.2 °C. Also, the ΔTm at 10 µM is 0.6 °C in [8]; 0.3 °C in [9]; 0 °C in [10]; -0.1 °C in [11]; 1 °C in data set [12]; 0.2 °C in data set [13]. For the same compound, the results for the ΔTm at 10 µM in [14] and in [15] were 0.2 °C and 0 °C, respectively.
Turning to `c1ccc2c(-c3cnn4cc(-c5ccc(N6CCNCC6)cc5)cnc34)ccnc2c1` [LDN-193189], the ISV formation phenotype result in data set [1] (10 µM) is “defects in intersomitic vessel (ISV) formation; also recorded: weak ISV defects”. Further, the ΔTm at 10 µM is 5.3 °C in data set [2]; -1.3 °C in data set [3]; 8.3 °C in data set [4]; 0.5 °C in data set [5]; -0.4 °C in data set [6]; 11 °C in data set [7]. For the same compound, the ΔTm at 10 µM was 2.1 °C in [8]; 7.9 °C in [9]; 0.9 °C in data set [10]; -0.6 °C in data set [11]; 1.2 °C in data set [12]; 1.2 °C in data set [13]. In addition, the ΔTm at 10 µM was 0.2 °C in data set [14] and 1.4 °C in data set [15].
